Laboratory results as given in patent US6613307B1, “Aerosol formulations of salmeterol xinafoate” (SmithKline Beecham Corporation, priority 1998, dated 2003).

Experiments:
Format in all cases: physicochemical
[1] = Reproducibility: particle size and distribution by laser diffraction (Malvern Mastersizer), Example 11; conditions: 300 bar, 35° C., acetone 0.6% w/v; for Mean Particle Size: two different days
Method: Two different solutions of salmeterol xinafoate in acetone (0.6% w/v) were made and each solution was co-introduced with CO2 via a coaxial nozzle into the particle formation vessel using the apparatus described on two different days to give samples A and B. The operating conditions were 300 bar and 35° C., with flow rates of 0.2 ml/min for the salmeterol solution and 6 ml/min for the supercritical CO2. The crystallised salmeterol xinafoate provided from each solution was examined for particle size and size distribution.

[2] = Dynamic bulk density (fluidisability) of salmeterol xinafoate powders; conditions: powder
Method: The dynamic bulk density (W) is indicative of a substance's fluidisability and is defined as: [formula]
where P is the packed bulk density (g.cm^−3), A is the aerated bulk density (g.cm^−3) and C is the compressibility (%) where C is calculated by the equation: [formula]
Conventionally crystallised salmeterol xinafoate, both before and after micronisation, was compared against salmeterol xinafoate made by the supercritical fluid method described herein. A solution of salmeterol xinafoate in acetone (0.63% w/v) was co-introduced with CO2 at 300 bar and 45° C. via a coaxial nozzle into the particle formation vessel using the apparatus described and shown in FIG. 1 to give sample 1. A solution of salmeterol xinafoate in acetone (0.50% w/v) was cointroduced with CO2 at 100 bar and 55° C. via a coaxial nozzle into the particle formation vessel using the apparatus described and shown in FIG. 1 to give sample 2. In each case, the solution flow rate was 0.4 ml/min and supercritical CO2 was co-introduced into the particle formation vessel at a flow rate of 9 ml/min.
The dynamic bulk densities are shown below in Table 2: […]

[3] = Particle size analysis by laser diffraction (Malvern Mastersizer E), Example 3
Method: A solution of salmeterol xinafoate in acetone (0.6% w/v) was co-introduced with CO2 at 200 bar and 55° C. via a coaxial nozzle into the particle formation vessel using the apparatus described and shown in FIG. 1. A series of products was obtained by changing the flow rate ratio of salmeterol xinafoate solution/supercritical CO2, where the flow ratio is defined as: [formula]
The flow ratio was changed between 0.01 and 0.07, with a flow rate of 9 ml/min for the supercritical CO2.
The resultant dry, easily handlable products without significant static charge were examined by scanning electron microscopy (SEM) and by laser diffraction (Malvern Mastersizer E) for particle size analysis (see FIGS. 12-15).
The uniformity index is defined as: [formula]

[4] = Relative static charge: drug remaining coated to vial walls after rolling; conditions: after rolling drug in vial for 5 minutes
Method: Using samples prepared as described in Example 1, a simple test was devised to determine their relative static charge based on the quantity of drug remaining coated to the walls of a vial after rolling a predetermined quantity of drug in the vial for 5 minutes. The greater the drug remaining on the vial, the higher the relative static charge associated with the drug substance.

[5] = Scanning electron microscopy of particles; conditions: SEM; needle shaped particles from isopropanol (0.2% w/v), 150 bar, 60° C.
Method: In another experiment, a solution of salmeterol xinafoate in isopropanol (0.2% w/v) was co-introduced with CO2 at 150 bar and 60° C. via a coaxial nozzle into the particle formation vessel using the apparatus described and shown in FIG. 1. The dry, easily handlable product without significant static charge was examined by SEM (see FIG. 16) and found to be composed of needle shaped particles with a maximum particle dimension of up to 300 microns. Thus by controlling and changing the working conditions of the particle formation process, salmeterol xinafoate products composed of particles with different particle sizes and size distributions were produced.

SMILES: OCc1cc(C(O)CNCCCCCCOCCCCc2ccccc2)ccc1O (single isomer, unassigned) [Sample A, salmeterol xinafoate]
- % < 5 microns [1]: 31.6%
- % < 10 microns [1]: 67.8%
- Uniformity index [1]: 9
- Mean Particle Size [1]: 7.2 Microns

SMILES: OCc1cc(C(O)CNCCCCCCOCCCCc2ccccc2)ccc1O (single isomer, unassigned) [Sample B, salmeterol xinafoate]
- % < 5 microns [1]: 28.3%
- % < 10 microns [1]: 64.5%
- Uniformity index [1]: 9
- Mean Particle Size [1]: 7.7 Microns

SMILES: OCc1cc(C(O)CNCCCCCCOCCCCc2ccccc2)ccc1O (stereo not shown) [Conventionally crystallised salmeterol xinafoate (micronised] [reference compound]
- Dynamic Bulk Density W [2]: 0.137 g · cm^−3
- % < 5 μm [3]: >90%
- % < 10 μm [3]: >95%
- Mean Particle Size [3]: 1-3 μm
- Uniformity index [3]: 13.1
- % Drug Retaining on Vial [4]: 7.0%

SMILES: OCc1cc(C(O)CNCCCCCCOCCCCc2ccccc2)ccc1O (stereo not shown) [SCF salmeterol xinafoate (sample 1), salmeterol xinafoate]
- Dynamic Bulk Density W [2]: 0.033 g · cm^−3
- % < 5 μm [3]: 66.0%
- % < 10 μm [3]: 94.5%
- Mean Particle Size [3]: 3.85 μm
- Uniformity index [3]: 10.2
- % Drug Retaining on Vial ([4]; sample 1): 2.5%

SMILES: OCc1cc(C(O)CNCCCCCCOCCCCc2ccccc2)ccc1O (stereo not shown) [SCF salmeterol xinafoate (sample 2), salmeterol xinafoate]
- Dynamic Bulk Density W [2]: 0.059 g · cm^−3
- % < 5 μm [3]: 5.7%
- % < 10 μm [3]: 16.1%
- Mean Particle Size [3]: 18.84 μm
- Uniformity index [3]: 19.2
- % Drug Retaining on Vial ([4]; sample 2): 5.7%

SMILES: OCc1cc(C(O)CNCCCCCCOCCCCc2ccccc2)ccc1O (stereo not shown) [conventionally crystallised salmeterol xinafoate (non-micron] [reference compound]
- Dynamic Bulk Density W [2]: 0.312 g · cm^−3

SMILES: OCc1cc(C(O)CNCCCCCCOCCCCc2ccccc2)ccc1O (stereo not drawn) [salmeterol xinafoate, 4-hydroxy-α^1-[[[6-(4-phenylbutoxy)hexyl]amino]methyl]-1,3-benzenedimethanol (salmeterol) 1-hydroxy-2-naphthalenecarboxylate (xinafoate)]
- maximum particle dimension [5]: up to 300 microns
